The data set in a line: gradient 5% acetonitrile 3 min, to 50% in 2 min, to 85% in 15 min, held 3 min, 100 µL/min. Particulars: column: Zorbax Extend-C18 2.1 x 50 mm; eluents: water / acetonitrile, 0.1% formic acid. An outline of the steps: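 The mobile phases were water and acetonitrile, each with 0.1% formic acid, pumped at 100 μL/min through a Zorbax Extend-C18 column (2.1 × 50 mm, 1.8 μm). Pure standards were injected as mixtures of ~100 molecules and detected by a quadrupole time-of-flight mass spectrometer in positive and negative ionization mode. Retention time came from computationally picked adduct peaks, each inspected by hand.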
With `COCCN1C(=O)Cc2ccccc2C1C(=O)N1CCN(c2ccccn2)CC1` (stereo not drawn), the RP-LC retention time was 581 s.
Next, `Cc1ccc(C(=O)NCc2nc(-c3ccc4c(c3)oc(=O)n4C(C)C)no2)cc1`: 871 s; `NC(=O)c1ccc(OCC(O)CN2CC=C(c3ccc(F)cc3)CC2)cc1` (stereo not drawn): 512 s; `O=C(CSc1cc(-n2ccc(C(=O)NC3CC3)n2)ncn1)Nc1ccc(Cl)cc1F`: 867 s.
As to `O=C(O)c1cc(Nc2ccc(F)cc2)c2cccc(Cl)c2n1`, the RP-LC retention time was 624 s.
Next, `CCc1ccc(Oc2cc(N3CCC(C(=O)NCc4ccc(C)cc4)CC3)ncn2)cc1`: 1050 s; `CSc1ccc(-c2nc3ncccn3c2Nc2ccccc2)cc1`: 777 s; `Cc1ccc(NC(=O)Nc2c(-c3ccc(F)cc3)nc3ccccn23)cc1`: 692 s.
As to `COC(=O)c1c(-c2ccc(Cl)cc2)noc1N1CCN(C(=O)c2ccco2)CC1`, the RP-LC retention time is 978 s.
`CN1C(=O)c2cccn2CC1CNS(=O)(=O)c1ccc(F)cc1` (stereo not drawn) gave an RP-LC retention time of 679 s.
Next, `Cc1c(C(=O)N2CCOCC2)sc2nc(-c3cccc(F)c3)c(NC3CCCC3)n12`: 859 s; `CCOc1ccc(C2Cn3nnc(-c4nc(-c5ccc(F)c(F)c5)no4)c3CO2)cc1` (stereo not drawn): 1250 s.
For `Cc1ccc(NC(=O)N(CCc2cccs2)Cc2cccnc2)cc1C`, the RP-LC retention time is 649 s.
As to `COc1ccccc1C(=O)N1C[C@H](c2nc(-c3ccccc3)no2)[C@@H](C)C1`, the RP-LC retention time stood at 820 s.
`CCc1cc(C(=O)Nc2ccccc2OC)nc2ccnn12` had an RP-LC retention time of 1090 s.
Consider `COC(=O)c1ccc(C(=O)NCC2CCN(c3ncccn3)CC2)cc1`, for which the RP-LC retention time worked out at 635 s.
In the case of `O=C(NCCc1ccccc1)N1C[C@@H]2C[C@H]1C[C@@H]2NS(=O)(=O)c1ccccc1`, the RP-LC retention time was 820 s.
Next, `CC(C)n1nnc2cc(C(=O)N(C)CC(=O)Nc3ccc(F)cc3F)ccc21`: 744 s; `Cn1ncc(Br)c1C(=O)N1CCCC1c1ccc(F)cc1` (stereo not drawn): 832 s; `O=C(CSc1ccc(N2CCCC(C(=O)NC3CC3)C2)nn1)Nc1ccc(F)c(F)c1` (stereo not drawn): 680 s.
The value for `O=C(c1cn(-c2cc(N3CCCCC3)ncn2)cn1)N1CCN(c2ncccn2)CC1` was 785 s; that for `Cc1ccc(C2NC(=O)c3ccccc3N2)s1` (stereo not drawn) was 705 s; that for `O=C(CSC1CCc2ccccc2NC1=O)Nc1ccc(Cl)cc1Cl` (stereo not drawn) was 930 s.
Next, `O=C(NCC(O)c1cccc2ccccc12)Nc1c(F)cccc1F` (stereo not drawn): 745 s; `Cc1ccc2c(c1)sc1nncn12`: 749 s; `CCn1ccc(C(=O)N2CCCC2c2ccc(F)cc2)n1` (stereo not drawn): 816 s.
Compound `CS(=O)(=O)N1CCC(C2CCN(Cc3ccc(C#N)cc3)C2)CC1` (stereo not drawn) gave an RP-LC retention time of 597 s.
`O=c1ccc(-c2ccccc2)nn1CCc1nc(-c2cccc(Cl)c2)no1` displayed an RP-LC retention time of 1030 s.
Compound `O=C(Cn1nc2c(cc1=O)CCCC2)Nc1nc(-c2ccccn2)cs1` returned an RP-LC retention time of 609 s.
The compound `O=C(CN1C(=O)C2CCCCN2c2ccc(C(=O)N3CCCCC3)cc21)NC1CCCCC1` (stereo not drawn) showed an RP-LC retention time of 889 s.
Consider `COc1ccc(-c2noc(N3CCC(C(=O)N4CCN(C5CCCCC5)CC4)CC3)n2)cc1OC`, for which the RP-LC retention time was 632 s.
Next, `CCCN(C)C(=O)c1ccc2nc(-c3ccc(C)cc3)cn2c1`: 641 s.
Next, `O=C(COc1ccc(F)cc1)Nc1ccc(-c2nc(-c3ccc(Cl)cc3)no2)cc1`: 1340 s.

Values taken from the METLIN SMRT retention time set (Domingo-Almenara et al. 2019).
